From US12116343B2, “Inhibitors of APOL1 and methods of using same” (Vertex Pharmaceuticals Incorporated, priority 2020, dated 2024)

target: T1, G1 APOL1 (Homo sapiens, UniProt O14791, I384M/S342G); assay: Acute APOL1 Thallium Assay with inducible stable clones of HEK 293 cells; assay type: cell-based; details: HEK 293 T-Rex cells expressing G1 APOL1; read-out: Thallium Assay (IC50)
T1 construct: expressed in transfected cells
T1 sequence (O14791 28-398 S342G/I384M): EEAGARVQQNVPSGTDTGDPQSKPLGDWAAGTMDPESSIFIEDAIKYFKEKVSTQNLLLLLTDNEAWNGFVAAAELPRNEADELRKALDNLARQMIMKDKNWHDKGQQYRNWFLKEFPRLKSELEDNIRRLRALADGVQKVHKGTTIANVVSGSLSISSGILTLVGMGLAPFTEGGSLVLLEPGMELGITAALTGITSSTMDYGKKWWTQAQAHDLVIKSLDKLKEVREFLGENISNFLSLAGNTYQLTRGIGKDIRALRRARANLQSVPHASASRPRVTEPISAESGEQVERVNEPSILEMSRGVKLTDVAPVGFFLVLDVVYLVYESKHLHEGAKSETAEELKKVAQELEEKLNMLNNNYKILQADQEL
Source text: Acute APOL1 Thallium Assay with Inducible Stable Clones of HEK 293 Cells
Apolipoprotein L1 (APOL1) proteins form potassium-permeable cation pores in the plasma membrane. APOL1 risk variants (G1 and G2) induce greater potassium flux than G0 in HEK293 cells. This assay exploits the permeability of thallium (Tl+) through ligand-gated potassium channels. The dye produces a bright fluorescent signal upon binding to Tl+ conducted through potassium channels. The intensity of the Tl+ signal is proportional to the number of potassium channels in the open state. Therefore, it provides a functional indication of the potassium channel activities. During the initial dye-loading step, the Tl+ indicator dye as an acetoxymethyl (AM) ester enters the cells through passive diffusion. Cytoplasm esterases cleave the AM ester and relieve its active thallium-sensitive form. The cells are then stimulated with Tl+. The increase of fluorescence in the assay represents the influx of Tl+ into the cell specifically through the potassium channel (i.e. through APOL1 pores), providing a functional measurement of potassium channel/pore activity. The Thallium assay is conducted with cells expressing G1 APOL1.
APOL1 Cell Line (HEK T-Rex Stable Inducible Cell Line) • HEK T-Rex System • Tetracycline (Tet) inducible mammalian expression system. • Stably express the Tet repressor to regulate transcription. • Expression under the full-length CMV promoter. • APOL1 stable inducible cell line Clone used: G1 DC3.25
Tissue Culture Media • Cell Culture Medium • DMEM+10% FBS+P/S+5 μg/mL blasticidin+1 μg/mL puromycin. • 500 mL DMEM+55 mL FBS+5 mL P/S+280 μL blasticidin S HCl (10 mg/mL)+56 μL puromycin (10 mg/mL). • Cell Assay Medium • DMEM with 2% FBS+pen strep.
Instruments and Equipment • Nuaire cell culture hood, Cat. No. 540-600 • 37° C./5% CO2 incubator link to robotic arm, Liconic: STX110 • Molecular Devices FLIPR^Tetra High throughput cellular screening system, Cat. No. FT0324, Molecular Devices • ThermoFisher MultiDrop 384, Cat. No. 5840300 • Biotek Microfill, Cat. No. ASF1000A-4145 • BioRad TC10 cell counter, Cat. No. 145-0010 Assay Procedures
Cells Scaled Up from Frozen Vials • APOL1 G1 3.25 (HEK293 T-Rex) frozen vials: 5 million cells per vial • Step 1, Day 1: Defrost frozen vial into T-225. • Step 2, Day 5: (when 85% confluent): Split one T-225 at 3×10^6 cells per flask. • Step 3, Day 8: Splits cells to set up for the assay plates as described below.
T-Rex APOL1 HEK cells are split twice per week to keep the confluence state below 85% of the culture flask surface area. Cells can be kept until passage 25. • Cell Culture Medium • DMEM high glucose+10% FBS, +P/S, +5 μg/mL blasticidin, +1 μg/mL puromycin. • 500 mL DMEM, +55 mL FBS, +5 mL P/S, +280 μL blasicidin 10 mg/mL, +56 μL Puromycin 10 mg/mL. • Assay Media • Opti-MEM reduced serum medium from Invitrogen.
Preparation of Cell Assay Plates • Culture medium is removed from the x cm^2 T-flask by aspiration. • The cell monolayer is rinsed with PBS 1× at room temperature. PBS is removed by aspiration. • Cells are trypsinized using Trypsin. • The flasks are incubated at room temperature for 2-3 minutes. • Complete DMEM medium is then added. Cell suspension is then transferred to a 50 mL Falcon polypropylene tube. • Cells are then counted using a Biorad TC10 cell counter and the required amount of cells are centrifuged at 1200 RPM for 5 minutes. Required amount is 1.3×10^6 cells/mL APOL1 T-Rex HEK cells. • The pellet is suspended in the assay medium. • Using the MultiDrop, add 20 μL to each well (corresponds to 26000 cells total per well) of a 384-well black, transparent, flat bottom Poly-D coated plate. • Tetracycline as prepared in the following section is added to the cells before plating to induce APOL1 expression. • Plates are left at room temperature for 20 to 30 minutes before incubation at 37° C. and 5% CO2. […]

First: CC1(C(=O)NC2(CO)CC2)CC(c2c(-c3ccc(F)cc3)[nH]c3c(F)cc(F)cc23)C1 (mixture of isomers) [Compound 281]
Second: CC1(C(=O)NCCO)CC(c2c(-c3ccc(F)cc3)[nH]c3c(F)cc(F)cc23)C1 (mixture of isomers) [Compound 283]
The IC50 of the first is lower: < 250 nM for the first, 250 to 1000 nM for the second.

`Cn1cnc(CNC(=O)C2(C)CC(c3c(-c4ccc(F)cc4)[nH]c4c(F)cc(F)cc34)C2)c1` (mixture of isomers) [Compound 282] and `CC1(C(=O)N[C@H]2CCNC2=O)CC(c2c(-c3ccc(F)cc3)[nH]c3c(F)cc(F)cc23)C1` (mixture of isomers) [Compound 284] fall in the same range of IC50: 250 to 1000 nM for the first, 250 to 1000 nM for the second.

Compared with `CC(CO)NC(=O)[C@H]1C[C@@H](c2c(-c3ccc(F)cc3)[nH]c3c(F)cc(F)cc32)C1` (mixture of isomers) [Compound 243], `C[C@@H](CO)NC(=O)[C@H]1C[C@H](c2c(-c3ccc(F)cc3)[nH]c3c(F)cc(F)cc32)C1` [Compound 27] is lower in IC50: > 1000 nM for the first, < 250 nM for the second.

`O=C([C@H]1C[C@H](c2c(-c3ccc(F)cc3)[nH]c3c(F)cc(F)cc32)C1)N1CCOC(CO)C1` (stereo partly drawn) [Compound 151] and `O=C(N[C@H]1CCOC1)[C@H]1C[C@@H](c2c(-c3ccc(F)cc3)[nH]c3c(F)cc(F)cc32)C1` [Compound 246] cannot be ordered by IC50: > 1000 nM for the first, > 1000 nM for the second.

First: O=C([C@H]1C[C@H](c2c(-c3ccc(F)cc3)[nH]c3c(F)cc(F)cc32)C1)N1CCOC(CO)C1 (stereo partly drawn) [Compound 152]
Second: O=C(NCCO)[C@H]1C[C@@H](c2c(-c3ccc(F)cc3)[nH]c3c(F)cc(F)cc32)C1 [Compound 237]
The IC50 of the first is higher: > 1000 nM for the first, 250 to 1000 nM for the second.

`O=C(N[C@@H]1CC[C@H](O)C1)[C@H]1C[C@H](c2c(-c3ccc(F)cc3)[nH]c3c(F)cc(F)cc32)C1` [Compound 180] and `O=C(N[C@H]1CC[C@H](O)C1)[C@H]1C[C@H](c2c(-c3ccc(F)cc3)[nH]c3c(F)cc(F)cc32)C1` [Compound 187] cannot be ordered by IC50: > 1000 nM for the first, > 1000 nM for the second.

First: C[C@H](CO)N(C)C(=O)[C@H]1C[C@H](c2c(-c3ccc(F)cc3)[nH]c3c(F)cc(F)cc32)C1 [Compound 190]
Second: C[C@H](O)[C@H](CO)NC(=O)[C@H]1C[C@@H](c2c(-c3ccc(F)cc3)[nH]c3c(F)cc(F)cc32)C1 [Compound 245]
The IC50 of the first is lower: 250 to 1000 nM for the first, > 1000 nM for the second.

First: O=C(NC(CO)(CO)CO)[C@H]1C[C@H](c2c(-c3ccc(F)cc3)[nH]c3c(F)cc(F)cc32)C1 [Compound 226]
Second: O=C(NC(CO)CO)[C@H]1C[C@@H](c2c(-c3ccc(F)cc3)[nH]c3c(F)cc(F)cc32)C1 [Compound 241]
The IC50 of the first is lower: < 250 nM for the first, > 1000 nM for the second.

First: O=C1NC[C@@H](O)[C@@H]1NC(=O)[C@H]1C[C@H](c2c(-c3ccc(F)cc3)[nH]c3c(F)cc(F)cc32)C1 [Compound 229]
Second: O=C1NCC[C@H]1NC(=O)[C@H]1C[C@@H](c2c(-c3ccc(F)cc3)[nH]c3c(F)cc(F)cc32)C1 [Compound 236]
The IC50 of the first is lower: < 250 nM for the first, > 1000 nM for the second. The first is the more potent here.

First: O=C(N[C@@H](CO)C(F)F)[C@H]1C[C@H](c2c(-c3ccc(F)cc3)[nH]c3c(F)cc(F)cc32)C1 [Compound 230]
Second: O=C(NCC(F)F)[C@H]1C[C@@H](c2c(-c3ccc(F)cc3)[nH]c3c(F)cc(F)cc32)C1 [Compound 238]
The IC50 of the first is lower: < 250 nM for the first, 250 to 1000 nM for the second.

`O=C(CNC(=O)[C@H]1C[C@H](c2c(-c3ccc(F)cc3)[nH]c3c(F)cc(F)cc32)C1)NCCO` [Compound 231] and `C[C@H](CO)NC(=O)CNC(=O)[C@H]1C[C@H](c2c(-c3ccc(F)cc3)[nH]c3c(F)cc(F)cc32)C1` [Compound 232] cannot be ordered by IC50: > 1000 nM for the first, > 1000 nM for the second.

`O=C(CNC(=O)[C@H]1C[C@H](c2c(-c3ccc(F)cc3)[nH]c3c(F)cc(F)cc32)C1)NC[C@@H](O)C(F)(F)F` [Compound 233] and `O=C(CNC(=O)[C@H]1C[C@H](c2c(-c3ccc(F)cc3)[nH]c3c(F)cc(F)cc32)C1)NC[C@H](O)C(F)(F)F` [Compound 234] cannot be ordered by IC50: > 1000 nM for the first, > 1000 nM for the second.

`O=C(NC1CC(O)C1)[C@H]1C[C@@H](c2c(-c3ccc(F)cc3)[nH]c3c(F)cc(F)cc32)C1` (stereo partly drawn) [Compound 239] and `O=C(NCC1COC1)[C@H]1C[C@@H](c2c(-c3ccc(F)cc3)[nH]c3c(F)cc(F)cc32)C1` [Compound 248] cannot be ordered by IC50: > 1000 nM for the first, > 1000 nM for the second.

First: O=C(NC1(CO)CCC1)[C@H]1C[C@@H](c2c(-c3ccc(F)cc3)[nH]c3c(F)cc(F)cc32)C1 [Compound 240]
Second: O=C(NCC(O)CO)[C@H]1C[C@@H](c2c(-c3ccc(F)cc3)[nH]c3c(F)cc(F)cc32)C1 (stereo partly drawn) [Compound 244]
The IC50 of the first is lower: 250 to 1000 nM for the first, > 1000 nM for the second. The first is the more potent here.

`COCCNC(=O)[C@H]1C[C@@H](c2c(-c3ccc(F)cc3)[nH]c3c(F)cc(F)cc32)C1` [Compound 242] and `Cn1nccc1NC(=O)[C@H]1C[C@@H](c2c(-c3ccc(F)cc3)[nH]c3c(F)cc(F)cc32)C1` [Compound 247] cannot be ordered by IC50: > 1000 nM for the first, > 1000 nM for the second.

same assay, conditions: Table 24, Compounds 287 to 465; read-out: Thallium Assay (IC50)

`CC(NC(=O)C1CC(Cc2c(-c3ccc(F)cc3)[nH]c3c(F)cc(F)cc23)C1)c1ccn(C)n1` (mixture of isomers) [Compound 312] and `CC(NC(=O)C1CC(Cc2c(-c3ccc(F)cc3)[nH]c3c(F)cc(F)cc23)C1)C1CCOC1` (mixture of isomers) [Compound 345] cannot be ordered by IC50: > 1000 nM for the first, > 1000 nM for the second.

`CC1(CNC(=O)C2CC(Cc3c(-c4ccc(F)cc4)[nH]c4c(F)cc(F)cc34)C2)CCOC1` (mixture of isomers) [Compound 332] and `CC1(NC(=O)C2CC(Cc3c(-c4ccc(F)cc4)[nH]c4c(F)cc(F)cc34)C2)CCOC1` (mixture of isomers) [Compound 334] cannot be ordered by IC50: > 1000 nM for the first, > 1000 nM for the second.

First: CC(O)C(C)NC(=O)O[C@H]1C[C@H](c2c(-c3ccc(F)cc3)[nH]c3c(F)cc(F)cc32)C1 (mixture of isomers) [Compound 363]
Second: CC(CO)NC(=O)O[C@H]1C[C@H](c2c(-c3ccc(F)cc3)[nH]c3c(F)cc(F)cc32)C1 (mixture of isomers) [Compound 356]
The IC50 of the first is higher: > 1000 nM for the first, 250 to 1000 nM for the second.

First: CNC(=O)C(C)NCC1CC(c2c(-c3ccc(F)cc3)[nH]c3c(F)cc(F)cc23)C1 (mixture of isomers) [Compound 436]
Second: CC(CO)N(C)C(=O)NC[C@H]1C[C@H](c2c(-c3ccc(F)cc3)[nH]c3c(F)cc(F)cc32)C1 (mixture of isomers) [Compound 412]
The IC50 of the first is lower: 250 to 1000 nM for the first, > 1000 nM for the second. The first is the more potent here.

Compared with `COCC(C)NC(=O)O[C@H]1C[C@H](c2c(-c3ccc(F)cc3)[nH]c3c(F)cc(F)cc32)C1` (mixture of isomers) [Compound 360], `CC(O)(CO)CNC(=O)O[C@H]1C[C@H](c2c(-c3ccc(F)cc3)[nH]c3c(F)cc(F)cc32)C1` (mixture of isomers) [Compound 378] is higher in IC50: 250 to 1000 nM for the first, > 1000 nM for the second.

`CC1(C)CC(C)(NC(=O)NC[C@H]2C[C@H](c3c(-c4ccc(F)cc4)[nH]c4c(F)cc(F)cc43)C2)C(=O)O1` (mixture of isomers) [Compound 392] and `CC1(NC(=O)NC[C@H]2C[C@H](c3c(-c4ccc(F)cc4)[nH]c4c(F)cc(F)cc43)C2)CCNC1=O` (mixture of isomers) [Compound 426] cannot be ordered by IC50: > 1000 nM for the first, > 1000 nM for the second.
